US20110143197A1, “ELECTRODE ACTIVE MATERIAL FOR POWER STORAGE DEVICE AND POWER STORAGE DEVICE, AND ELECTRONIC EQUIPMENT AND TRANSPORTATION EQUIPMENT” (priority 2008, published 2011)

Experiments:
[1] = Coin battery charge-discharge test (metal lithium negative electrode), Test Example 3
Source text: A coin battery as shown in FIG. 5 was fabricated as one example of the power storage device of the present invention. FIG. 5 is a vertical cross-sectional view schematically showing a configuration of a coin battery 1 that is one example of the power storage device of the present invention.
A positive electrode includes a positive electrode current collector 12 made of an aluminum foil and a positive electrode active material layer 13 formed on the positive electrode current collector 12 and containing the phenanthrenequinone-containing compound (1a). The positive electrode was produced in the same manner as in the electrode production method in Test Example 2. This positive electrode was disposed such that the positive electrode current collector 12 was brought into contact with the inner surface of a case 11, and a separator 14 made of a porous polyethylene sheet was placed on the positive electrode.
Then, a non-aqueous electrolyte was injected into the case 11. As the non-aqueous electrolyte, an electrolyte prepared by dissolving lithium hexafluorophosphate in a concentration of 1.25 mol/L in a solvent mixture containing ethylene carbonate and ethylmethyl carbonate (weight ratio 1:3) was used. […]
The charge-discharge capacity was calculated based on the initial discharge capacity of each of the coin batteries. […]

[2] = Solubility in an electrolyte (ultraviolet-visible absorption spectrum and visual inspection), Test Example 1; type: physicochemical; details: 5.0 mmol/l in 1.0 mol/L lithium fluoroborate in propylene carbonate
Method: The solubility of the phenanthrenequinone-containing compounds and the phenanthrenequinone-containing polymers obtained in Examples 1 to 10 in an electrolyte was evaluated in the following manner.
A phenanthrenequinone-containing compound or a phenanthrenequinone-containing polymer as obtained in Examples 1 to 10 was mixed with 20 cc of an electrolyte so as to attain a concentration of 5.0 mmol/l, thereby giving a test liquid. This test liquid was subjected to ultraviolet-visible absorption spectrum measurement to examine the solubility of each compound in the electrolyte. The ultraviolet-visible absorption spectrum measurement was performed under the following measurement conditions: a measurement range of 190 to 900 nm and a reference solution of a liquid electrolyte. A UV-2550 (trade name) manufactured by SHIMADZU CORPORATION was used as the measurement apparatus. A liquid electrolyte prepared by dissolving lithium fluoroborate in a concentration of 1.0 mol/L in propylene carbonate was used as the electrolyte.
As a comparative example, a solubility test was performed in the same manner as described above using 9,10-phenanthrenequinone.

[3] = Cyclic voltammetry of evaluation battery (electrode properties), Test Example 2; type: physicochemical
Method: The electrode properties of the phenanthrenequinone-containing compound (1a) obtained in Example 1 were examined in the following manner. First, in an argon box equipped with a gas purifier, 20 mg of the phenanthrenequinone-containing compound (1a) serving as an electrode active material and 20 mg of acetylene black serving as a conductive auxiliary agent were uniformly mixed under an argon gas atmosphere. To the resultant mixture was added 1 ml of N-methyl-2-pyrrolidone serving as a solvent, and 5 mg of polyvinylidene fluoride serving as a binder was further added thereto, followed by uniform mixing, to prepare a black slurry. The binder was used in order to bond the electrode active material and the conductive auxiliary agent together.
The slurry thus obtained was applied to the surface of a 20 μm-thick aluminum foil (current collector), and vacuum-dried for 2 hours at room temperature. After drying, a disc having a diameter of 13.5 mm was punched out of the resultant structure to produce an electrode in which an active material layer containing a mixture of the electrode active material, the conductive auxiliary agent, and the binder was formed.
The electrode thus obtained was used as a working electrode, and metal lithium was used for a counter electrode and a reference electrode. These electrodes were immersed in an electrolyte to fabricate an evaluation battery, and the potential sweeping was performed in a potential range from 2.0 to 4.0 V relative to lithium. The sweeping rate was 0.1 mV/sec. As the electrolyte, a liquid electrolyte prepared by dissolving lithium fluoroborate in a concentration of 1.0 mol/L in a solvent mixture containing propylene carbonate and ethylene carbonate (volume ratio 1:1) was used. FIG. 4 is a cyclic voltammogram of the evaluation battery using the electrode active material of the present invention [phenanthrenequinone-containing compound (1a)].

[4] = relative to lithium, sweep 2.0 to 4.0 V, 0.1 mV/sec

reversibility of redox reaction ([3]; cyclic voltammogram, FIG. 4) | dissolution from the electrode ([3]; during potential sweeping in liquid electrolyte) | current peak indicating the oxidation reaction [3, 4] | current peak indicating the second-step reduction reaction [3, 4] | current peak indicating the first-step reduction reaction ([3]; relative to lithium, sweep 2.0 to 4.0 V, 0.1 mV/sec, 1.0 mol/L lithium fluoroborate in propylene carbonate/ethylene carbonate 1:1) | Structure (SMILES) | appearance of electrolyte when battery disassembled after charging and discharging [1] | observation by visual inspection of electrolyte (coloration, dissolution) [2] | absorption peak in ultraviolet-visible absorption spectrum of test liquid (solubility in electrolyte) ([2]; measurement range 190 to 900 nm)
– | – | – | – | – | O=C1C(=O)c2ccccc2-c2ccccc21 [9,10-phenanthrenequinone] | green coloration of the electrolyte | colored in yellow, as a result of the compound being entirely dissolved in the electrolyte | a large absorption peak was observed near 250 to 350 nm
underwent a reversible redox reaction | no dissolution | around 3.5 V | around 2.6 V | around 3.1 V | O=C1C(=O)c2cc(-c3ccc(-c4ccc5c(c4)C(=O)C(=O)c4ccccc4-5)cc3)ccc2-c2ccccc21 [Compound 1a, 1,4-(9,10-phenanthraquinone)-benzene] | – | – | –
